Reference: patent publication US6872749B2, “Method for supplying bioavailable methionine to a cow” (Adisseo Ireland Limited, priority 1998, dated 2005)
Read-outs that look alike come from different tables or passages of the source. Each block holds one compound with its values, some of them ahead of it.

Key:
[1] = Bioavailability of esters of methionine after spot dose to cows (Example 2); assay type: in vivo, cow; details: bovine, in vivo
Experimental: The bioavailability of the esters was evaluated.
The samples were stored in a freezer.
The procedure of (b1) was repeated using 72 g of methionine ethyl ester hydrochloride, prepared as detailed above
• cyclohexyl methioninate: 122 g • methionine methyl ester hydrochloride: 73 g • sec butyl methioninate: 72 g

[2] = tested on: cows; assay: Milk production of dairy cows given ester supplement (Examples 4 and 6); assay type: in vivo, cow; details: for Butter Content of Milk / Daily amount of milk / Protein content of Milk: supplement providing 12.5 g of bioavailable methionine per animal per day, 16 cows; for Effect of addition to the diet on milk composition: versus control, Table 5
From the text: The isopropyl ester of the hydroxy analogue of methionine was given to 16 cows over a period of 8 weeks. Each cow was given daily corn silage and a supplement to cover 100% of requirement and a 115% PDIE (protein digestible in the intestine) requirement.
The supplements were given to the cows according to the following schedule: […]

[3] = incubation for six hours in rumen juices; cited from earlier work
[4] = bovine, in vivo
Experimental: Spot doses of the following amounts of the esters prepared as detailed above, equating to 50 g of methionine equivalent, were given to 2 cows in the manner described in Example 2(b1) above. • methyl ester of HMB: 64.8 g • ethyl ester of HMB: 74.8 g • isopropyl ester of HMB: 80.5 g • n-butyl ester of HMB: 96 g • cyclohexyl ester of HMB: 97.5 g • see butyl ester of HMB: 79 g The concentration of methionine and HMB was measured over a period of 27 hours.
56 g of methyl methioninate and 72 g of n-propyl methioninate (providing an equivalent 50 g of DL-methionine), prepared as detailed above, were supplied to two cows as a spot dose at 7.45 am just before the morning feed.
The ration given to the cows was distributed as two equal meals at 08.00 hours and 16.00 hours comprised 7 kg of hay and 2 kg concentrate.
Samples of blood were taken by jugular vein puncture 09.00, 10.00, 11.00, 13.00 and 15.00 hours on the day where the ester was given to the animal and at 09.00, 12.00 and 15.00 hours on the day before and two days after supply.
The plasma from each sample was isolated from the blood samples by centrifuging the blood at 3000 revs per minute for 10 minutes. The samples were stored in a freezer. The assay for methionine was carried out according to the standard procedure of Moore and Stein.
The results were plotted using the conventional AUC method wherein the areas under the curves are calculated to obtain the bioavailability values for each ester.

[5] = dose of methionine equivalent to 50 g per day per cow; cited from earlier work
[6] = in vivo; details: bovine
Experimental: The kinetics of availability of methionine and HMB in the bloodstream were determined for the isopropyl ester of the hydroxy analogue of methionine and compared with the hydroxy analogue of methionine (a compound not according to the present invention).
The procedure of Example 2 was repeated wherein samples of the isopropyl ester of the hydroxy analogue (69 g) and the hydroxy analogue (Alimet™-57 g) were given to four cows.

- [met] methionine concentration in blood plasma ([1]; 0 h): 0.33 mg/100 g of blood plasma
- [met] methionine concentration in blood plasma ([1]; 1 h): 3.62 mg/100 g of blood plasma
- [met] methionine concentration in blood plasma ([1]; 2 h): 3.21 mg/100 g of blood plasma
- [met] methionine concentration in blood plasma ([1]; 3 h): 2.86 mg/100 g of blood plasma
- [met] methionine concentration in blood plasma ([1]; 5 h): 2.22 mg/100 g of blood plasma
- [met] methionine concentration in blood plasma ([1]; 7 h): 1.93 mg/100 g of blood plasma
- [met] methionine concentration in blood plasma ([1]; 28 h): 0.35 mg/100 g of blood plasma
- Bioavailability % ([1]; po): 44%
Compound: CSCC[C@H](N)C(=O)OC(C)C [Isopropyl methioninate, isopropyl methioninate]
- Butter Content of Milk [2]: 43.3 g/kg
- Daily amount of milk [2]: 32.7 kg/cow
- Protein content of Milk [2]: 30.6 g/kg
- Effect of addition to the diet on milk composition [2]: higher fat content and higher protein content

Compound: CSCC[C@H](N)C(=O)O [methionine]
- amount remaining after incubation in rumen juices [3]: 34%

- Bioavailability [4]: 35%
Compound: CCOC(=O)C(O)CCSC (centres unmarked) [ethyl ester of HMB]
- amount remaining after incubation in rumen juices [3]: 3%

- Blood plasma HMB concentration ([6]; 0 min): 0.00 mg/100 g of plasma
- Blood plasma HMB concentration ([6]; 10 min): 0.00 mg/100 g of plasma
- Blood plasma HMB concentration ([6]; 20 min): 0.00 mg/100 g of plasma
- Blood plasma HMB concentration ([6]; 30 min): 0.00 mg/100 g of plasma
- Blood plasma HMB concentration ([6]; 40 min): 0.00 mg/100 g of plasma
- Blood plasma HMB concentration ([6]; 50 min): 0.00 mg/100 g of plasma
- Blood plasma HMB concentration ([6]; 60 min): 0.00 mg/100 g of plasma
- Blood plasma HMB concentration ([6]; 75 min): 0.00 mg/100 g of plasma
- Blood plasma HMB concentration ([6]; 90 min): 0.00 mg/100 g of plasma
- concentration at 0 min ([6]; Blood plasma HMB concentration): 0 ng/g
- concentration at 10 min ([6]; Blood plasma HMB concentration): 0 ng/g
- concentration at 20 min ([6]; Blood plasma HMB concentration): 0 ng/g
- concentration at 30 min ([6]; Blood plasma HMB concentration): 0 ng/g
- concentration at 40 min ([6]; Blood plasma HMB concentration): 0 ng/g
- concentration at 50 min ([6]; Blood plasma HMB concentration): 0 ng/g
- concentration at 60 min ([6]; Blood plasma HMB concentration): 0 ng/g
- concentration at 75 min ([6]; Blood plasma HMB concentration): 0 ng/g
- concentration at 90 min ([6]; Blood plasma HMB concentration): 0 ng/g
Compound: CSCCC(O)C(=O)O (centres unmarked) [HMB, 2-hydroxy-4-(methylthio) butanoic acid]
- Bioavailability [5]: 3%
- amount remaining after incubation in rumen juices [3]: 85%

- Bioavailability [4]: 39%
Compound: COC(=O)C(O)CCSC (centres unmarked) [Methyl ester of HMB, methyl ester of HMB]
- amount remaining after incubation in rumen juices [3]: 1.8%

- Bioavailability [4]: 59%
- appearance of the bioavailability peak in the blood following administration [4]: relatively quickly
- bioavailability of methionine [4]: more than 50%
- methionine equivalent provided to the bloodstream by absorption across the rumen wall [4]: at least 50%
- Blood plasma HMB concentration [6]: 0.00 mg/100 g of plasma
- Speed of providing methionine and HMB to the bloodstream [6]: much quicker than HMB itself
Compound: CSCCC(O)C(=O)OC(C)C (centres unmarked) [Isopropyl ester of HMB, isopropyl ester of the hydroxy analogue of methionine]
- Butter Content of Milk [2]: 44.3 g/kg
- Daily amount of milk [2]: 32.3 kg/cow
- Protein content of Milk [2]: 30.8 g/kg
- Effect of addition to the diet on milk composition [2]: higher fat content and higher protein content
